Experiments:
[1] = target: T1, human S1P4 (Homo sapiens, UniProt O95977); experiment: S1P receptor calcium mobilization assay, antagonist format; type: cell-based; settings: recombinant CHEM cells expressing human S1P4; calcium flux, FLIPR; stimulated with EC80 of reference agonist
T1 construct: host or cells: recombinant CHEM cells
T1 sequence (O95977 1-384): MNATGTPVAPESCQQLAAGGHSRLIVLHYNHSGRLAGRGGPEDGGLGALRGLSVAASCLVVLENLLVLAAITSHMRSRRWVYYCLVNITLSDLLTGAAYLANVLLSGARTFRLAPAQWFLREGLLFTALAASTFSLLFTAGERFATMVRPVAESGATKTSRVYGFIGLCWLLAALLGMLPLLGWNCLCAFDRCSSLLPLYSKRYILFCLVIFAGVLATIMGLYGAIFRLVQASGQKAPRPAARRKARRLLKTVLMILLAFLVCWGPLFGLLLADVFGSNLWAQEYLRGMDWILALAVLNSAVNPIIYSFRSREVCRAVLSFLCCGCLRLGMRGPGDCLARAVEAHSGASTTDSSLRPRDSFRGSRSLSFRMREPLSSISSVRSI
Protocol: Compounds that are not specific for a particular S1P receptor can cause undesirable side effects. Accordingly, compounds are tested to identify those that are specific. Accordingly, the test compounds are tested in a calcium mobilization assay/S1P receptor activity assay. The procedure is essentially as described in Davis et al. (2005) Journal of Biological Chemistry, vol. 280, pp. 9833-9841, which is incorporated by reference in its entirety with the following modifications. Calcium mobilization assays are performed in recombinant CHEM cells expressing human S1P1, S1P2, S1P3, S1P4, or S1P5 purchased from Millipore (Billerica, Mass.). To detect free intracellular calcium, S1P1, S1P2, S1P3, S1P4, or S1P5 cells are loaded with FLIPR Calcium 4 dye from Molecular Devices (Sunnyvale, Calif.). Cells are imaged for calcium mobilization using a FLIPR^TERA equipped with a 96-well dispense head.
Agonist percentage activation determinations were obtained by assaying sample compounds and referencing the Emax control for each receptor profiled. Antagonist percentage inhibition determinations were obtained by assaying sample compounds and referencing the control EC80 wells for each receptor profiled.
Sample compounds were plated in an eight-point, four-fold dilution series in duplicate with a top concentration of 10 μM. The concentrations described here reflect the final concentration of the compounds during the antagonist assay. During the agonist assay the compound concentrations were 1.25 fold higher to allow for the final desired concentration to be achieved with further dilution by EC80 of reference agonists during the antagonist assay.
Reference agonists were handled as mentioned above serving as assay control. The reference agonists were handled as described above for Emax.
Assay was read for 180 seconds using the FLIPR^TETRA (This assay run added sample compounds and reference agonist to respective wells). At the completion of the first “Single Addition” assay run, assay plate was removed from the FLIPR^TETRA and placed at 25° C. for seven (7) minutes.
Using the EC80 values determined during the agonist assay, stimulated all pre-incubated sample compound and reference antagonist (if applicable) wells with EC80 of reference agonist. Read for 180 seconds using the FLIPR^TETRA (This assay added reference agonist to respective wells-then fluorescence measurements were collected to calculate percentage inhibition values).

[2] = target: T2, Human ATX protein (Homo sapiens, UniProt Q13822); experiment: ATX biochemical FRET assay with FS-3 substrate; settings: FS-3 2 μM, ATX 1.0 μg/mL, room temperature 2 hours, fluorescence 485/538 nm
T2 construct: made in house
Procedure, shortened: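 Purified human ATX (1.0 μg/mL final) preincubated with compound 30 min at room temperature in Tris pH 7.4 buffer with NaCl, KCl, CaCl2, MgCl2 and 1 mg/mL fatty acid-free BSA. FS-3 added to 2 μM final; 2 h at room temperature in the dark, fluorescence at ex 485/em 538 nm.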

Row | SMILES | IC50 [1] | IC50 [2]
1 | CC(C)(C)[C@H]1CC[C@H](Oc2ccc3cc(CN4CC(C5CCCC(C(=O)O)C5)C4)ccc3c2)CC1 (stereo partly drawn) [Example 58, 3-(1-((6-((trans-4-(tert-butyl)cyclohexyl)oxy)naphthalen-2-yl)methyl)azetidin-3-yl)cyclohexanecarboxylic acid] | ≤ 100 nM | 
2 | CC(C)(C)[C@H]1CC[C@H](Oc2ccc3cc(CN4CC5CC(C4)C5C(=O)O)ccc3c2)CC1 (stereo partly drawn) [Example 74, 3-((6-((trans-4-(tert-butyl)cyclohexyl)oxy)naphthalen-2-yl)methyl)-3-azabicyclo[3.1.1]heptane-6-carboxylic acid] | ≤ 100 nM | 
3 | CC(C)(C)[C@H]1CC[C@H](Oc2ccc3cc(CN4CC5(COC5)C4)ccc3c2)CC1 [Example 67, 6-((6-((trans-4-(tert-butyl)cyclohexyl)oxy)naphthalen-2-yl)methyl)-2-oxa-6-azaspiro[3.3]heptane] | ≤ 500 nM | 
4 | CC(C)(C)[C@H]1CC[C@H](Nc2cc3ccc(C(=O)N4C5CCC4CC(C(=O)O)C5)cc3cn2)CC1 (stereo partly drawn) [Example 194, 8-(3-((trans-4-(tert-butyl)cyclohexyl)amino)isoquinoline-7-carbonyl)-8-azabicyclo[3.2.1]octane-3-carboxylic acid] |  | ≤ 100 nM
5 | O=C(O)C1CC2(C1)CN(Cc1ccc3c(C(F)(F)F)c(O[C@H]4CC[C@@H](C(F)(F)F)CC4)ccc3c1)C2 [Example 146, 2-((5-(trifluoromethyl)-6-((cis-4-(trifluoromethyl)cyclohexyl)oxy)naphthalen-2-yl)methyl)-2-azaspiro[3.3]heptane-6-carboxylic acid] |  | ≤ 250 nM
6 | O=C(O)C1CC2CCC1N2Cc1ccc2c(C(F)(F)F)c(O[C@H]3CC[C@@H](C(F)(F)F)CC3)ccc2c1 (relative stereo) [Example 165, 7-(5-trifluoromethyl-6-(cis-4-trifluoromethyl-cyclohexyloxy)-naphthalen-2-ylmethyl)-7-azabicyclo[2.2.1]heptane-2-carboxylic acid] |  | ≤ 250 nM
7 | CC[C@H]1CC[C@@H](Oc2ccc3cc(C(C)N4C5CCC4CC(C(=O)O)C5)ccc3c2C(F)(F)F)CC1 (relative stereo) [Example 176, 8-(1-(6-((cis-4-ethylcyclohexyl)oxy)-5-(trifluoromethyl)naphthalen-2-yl)ethyl)-8-azabicyclo[3.2.1]octane-3-carboxylic acid] |  | ≤ 100 nM
8 | CC(c1ccc2c(Cl)c(O[C@H]3CC[C@@H](C)CC3)ccc2c1)N1C2CCC1CC(C(=O)O)C2 (stereo partly drawn) [Example 205, 8-(1-(5-chloro-6-((cis-4-methylcyclohexyl)oxy)naphthalen-2-yl)ethyl)-8-azabicyclo[3.2.1]octane-3-carboxylic acid] |  | ≤ 250 nM
9 | O=C(O)C1CC2CCCC(C1)N2Cc1cc2ccc(O[C@H]3CC[C@@H](C(F)(F)F)CC3)c(C(F)(F)F)c2cn1 (stereo partly drawn) [Example 197, 9-((8-(trifluoromethyl)-7-((cis-4-(trifluoromethyl)cyclohexyl)oxy)isoquinolin-3-yl)methyl)-9-azabicyclo[3.3.1]nonane-3-carboxylic acid] |  | ≤ 500 nM
10 | CC(C)(C)[C@H]1CC[C@H](Nc2ncc3cc(C(=O)N4C5CCCC4CC(C(=O)O)C5)ccc3n2)CC1 (stereo partly drawn) [Example 191, 9-(2-((trans-4-(tert-butyl)cyclohexyl)amino)quinazoline-6-carbonyl)-9-azabicyclo[3.3.1]nonane-3-carboxylic acid] |  | ≤ 100 nM
11 | O=C(O)C1CC2CCCC(C1)N2Cc1ccc2c(C(F)(F)F)c(O[C@H]3CC[C@@H](C(F)(F)F)CC3)ccc2c1 (stereo partly drawn) [Example 84, 9-((5-(trifluoromethyl)-6-((cis-4-(trifluoromethyl)cyclohexyl)oxy)naphthalen-2-yl)methyl)-9-azabicyclo[3.3.1]nonane-3-carboxylic acid] |  | ≤ 100 nM
12 | C[C@H]1CC[C@@H](Oc2ccc3cc(C(C(=O)O)N4C5CCCC4CCC5)ccc3c2C(F)(F)F)CC1 (stereo partly drawn) [Example 109, 2-(9-Azabicyclo[3.3.1]nonan-9-yl)-2-(6-((cis-4-methylcyclohexyl)oxy)-5-(trifluoromethyl)naphthalen-2-yl)acetic acid] |  | ≤ 250 nM
13 | CCC1CCC(Oc2ccc3cc(C(CC)N4C5CCCC4CC(C(=O)O)C5)ccc3c2C(F)(F)F)CC1 [Example 297, 9-((R)-1-(6-(((1s,4S)-4-ethylcyclohexyl)oxy)-5-(trifluoromethyl)naphthalen-2-yl)propyl)-9-azabicyclo[3.3.1]nonane-3-carboxylic acid] |  | ≤ 250 nM
14 | N#Cc1c(O[C@H]2CC[C@@H](C(F)(F)F)CC2)ccc2cc(C(=O)N3C4CCCC3CC(C(=O)O)C4)ccc12 (stereo partly drawn) [Example 206, 9-(5-cyano-6-((cis-4-(trifluoromethyl)cyclohexyl)oxy)-2-naphthoyl)-9-azabicyclo[3.3.1]nonane-3-carboxylic acid] |  | ≤ 100 nM
15 | CC[C@H]1CC[C@@H](Oc2ccc3cc(C(C)N4C5CCC4CC(C(=O)O)C5)ccc3c2Cl)CC1 (relative stereo) [Example 184, 8-(1-(5-Chloro-6-((cis-4-ethylcyclohexyl)oxy)naphthalen-2-yl)ethyl)-8-azabicyclo[3.2.1]octane-3-carboxylic acid] |  | ≤ 100 nM
16 | CCC(c1ccc2c(C(F)F)c(O[C@H]3CC[C@@H](C)CC3)ccc2c1)N1C2CCC1CC(C(=O)O)C2 (single isomer, unassigned; enantiomer 1) [Example 140, 8-(1-(5-(difluoromethyl)-6-((cis-4-methylcyclohexyl)oxy)naphthalen-2-yl)propyl)-8-azabicyclo[3.2.1]octane-3-carboxylic acid, enantiomer 1] |  | ≤ 100 nM
17 | NC1CC2CC(C(=O)O)CC(C1)N2Cc1ccc2c(C(F)(F)F)c(O[C@H]3CC[C@@H](C(F)(F)F)CC3)ccc2c1 (stereo partly drawn) [Example 284, 9-(1R,3R,5S)-7-amino-9-((5-(trifluoromethyl)-6-((cis-4-(trifluoromethyl)cyclohexyl)oxy)naphthalen-2-yl)methyl)-9-azabicyclo[3.3.1]nonane-3-carboxylic acid] |  | ≤ 250 nM
18 | O=C(O)C1CC2CCC(C1)N2C(=O)c1ccc2c(C(F)(F)F)c(N[C@H]3CC[C@@H](C(F)(F)F)CC3)ccc2c1 (stereo partly drawn) [Example 190, 8-(5-(trifluoromethyl)-6-((cis-4-(trifluoromethyl)cyclohexyl)amino)-2-naphthoyl)-8-azabicyclo[3.2.1]octane-3-carboxylic acid] |  | ≤ 100 nM
19 | CC(c1ccc2c(C#N)c(O[C@H]3CC[C@@H](C)CC3)ccc2c1)N1C2CCC1CC(C(=O)O)C2 (stereo partly drawn) [Example 189, 8-(1-(5-cyano-6-((cis-4-methylcyclohexyl)oxy)naphthalen-2-yl)ethyl)-8-azabicyclo[3.2.1]octane-3-carboxylic acid] |  | ≤ 250 nM
20 | C[C@H]1CC[C@@H](Oc2ccc3cc(CN4C5COCC4CC(C(=O)O)C5)ccc3c2C(F)(F)F)CC1 (relative stereo) [Example 126, 9-((6-((cis-4-Methylcyclohexyl)oxy)-5-(trifluoromethyl)naphthalen-2-yl)methyl)-9-aza-7-oxa-bicyclo[3.3.1]nonane-3-carboxylic acid] |  | ≤ 250 nM
21 | CC(c1ccc2c(C(F)(F)F)c(O[C@H]3CC[C@@H](C(F)(F)F)CC3)ccc2c1)N1C2CCC1CC(C(=O)O)C2 (relative stereo) [Example 122, 8-(1-(5-(trifluoromethyl)-6-((cis-4-(trifluoromethyl)cyclohexyl)oxy)-naphthalene-2-yl)ethyl)-8-azabicyclo[3.2.1]octane-3-carboxylic acid] |  | ≤ 100 nM
22 | CC[C@@H](c1ccc2c(C(F)(F)F)c(O[C@H]3CC[C@@H](C)CC3)ccc2c1)N1C2CCC1CC(C(=O)O)C2 (single isomer, unassigned) [Example 233, 8-((s)-1-(6-((cis-4-methylcyclohexyl)oxy)-5-(trifluoromethyl)naphthalen-2-yl)propyl)-8-azabicyclo[3.2.1]octane-3-carboxylic acid] |  | ≤ 100 nM

Source: US9944666B2, “Compounds that are S1P modulating agents and/or ATX modulating agents” (BIOGEN MA INC., priority 2012, dated 2018)
